This is an account of results in PubChem BioAssay AID248 (DTP/NCI, 2004).

For this experiment, the system named is L1210 leukemia ip in BDF1 mice, survival T/C. Description: NCI In Vivo Anticancer Drug Screen. Data for tumor model L1210 Leukemia (intraperitoneal) in B6D2F1 (BDF1) mice. The settings on record: endpoint: mean survival time, higher = longer survival. The gist of the method:
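Transplanted-tumor mice were given test agent; controls received vehicle only. Survival readings from the two groups were divided (treated over control).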

Where [1] appears, read: dose: 100.0 mg/kg/injection, schedule: Q01DX001 (ip), vehicle: saline with Tween-80.
The mark [2] stands for this setting: dose: 200.0 mg/kg/injection, schedule: Q01DX001 (ip), vehicle: saline with Tween-80.
Where [3] appears, read: dose: 50.0 mg/kg/injection, schedule: Q04DX003 (ip), vehicle: saline with Tween-80.
The mark [4] stands for this setting: dose: 100.0 mg/kg/injection, schedule: Q04DX003 (ip), vehicle: saline with Tween-80.
Setting [5] is: dose: 200.0 mg/kg/injection, schedule: Q04DX003 (ip), vehicle: saline with Tween-80.
Setting [6] is: dose: 200.0 mg/kg/injection, schedule: Q04DX002 (ip), vehicle: Klucel (hydroxypropylcellulose) (HPC).
Setting [7] is: dose: 400.0 mg/kg/injection, schedule: Q04DX002 (ip), vehicle: Klucel (hydroxypropylcellulose) (HPC).
[8] abbreviates: dose: 100.0 mg/kg/injection, schedule: Q01DX001 (ip), vehicle: carboxymethylcellulose (CMC).
[9] abbreviates: dose: 200.0 mg/kg/injection, schedule: Q01DX001 (ip), vehicle: carboxymethylcellulose (CMC).
Where [10] appears, read: dose: 400.0 mg/kg/injection, schedule: Q01DX001 (ip), vehicle: carboxymethylcellulose (CMC).
Setting [11] is: dose: 400.0 mg/kg/injection, schedule: Q04DX003 (ip), vehicle: saline with Tween-80.

Several values for one entry are separate records, joined by “and”; a condition that tells them apart may be missing. Identical values can stand only once. Toxic doses and inconclusive results are not listed.

On to `COc1cc(C)ccc1I`, for which the T/C was 100 % of control (dose: 50.0 mg/kg/injection, schedule: Q01DX001 (ip), vehicle: saline with Tween-80); 100 % of control under setting [1]; 100 % of control under setting [2].

In the case of `CCCC[C@H]1C(=O)O[C@H](C)[C@H](NC(=O)c2cccc(NC=O)c2O)C(=O)O[C@@H](C)[C@@H]1OC(=O)CC(C)C`, the T/C (dose: 0.5 mg/kg/injection, schedule: Q01DX001 (ip), vehicle: carboxymethylcellulose (CMC)) is 92 % of control; the T/C (dose: 1.0 mg/kg/injection, schedule: Q01DX001 (ip), vehicle: carboxymethylcellulose (CMC)) was 101 % of control; the T/C (dose: 2.0 mg/kg/injection, schedule: Q01DX001 (ip), vehicle: carboxymethylcellulose (CMC)) was 94 % of control.

With `O=C(Nc1cccc([N+](=O)[O-])c1)c1ccc(Cl)c(Cl)c1`, the T/C reads like this: (dose: 25.0 mg/kg/injection, schedule: Q04DX003 (ip), vehicle: saline with Tween-80) 115 % of control; under setting [3], 96 % of control; under setting [4], 99 % of control; under setting [5], 86 % of control; (dose: 300.0 mg/kg/injection, schedule: Q04DX003 (ip), vehicle: saline with Tween-80) 86 % of control.

Consider `O=NN(CCCl)C(=O)N[C@H]1CCC[C@@H](O)C1`, for which the T/C reads like this: (dose: 12.0 mg/kg/injection, schedule: Q01DX001 (ip), vehicle: saline with Tween-80) 176 % of control; (dose: 18.0 mg/kg/injection, schedule: Q01DX001 (ip), vehicle: saline with Tween-80) 306 % of control; (dose: 26.0 mg/kg/injection, schedule: Q01DX001 (ip), vehicle: saline with Tween-80) 468 % of control; (dose: 40.0 mg/kg/injection, schedule: Q01DX001 (ip), vehicle: saline with Tween-80) 468 % of control; (dose: 60.0 mg/kg/injection, schedule: Q01DX001 (ip), vehicle: saline with Tween-80) 382 % of control; (dose: 90.0 mg/kg/injection, schedule: Q01DX001 (ip), vehicle: saline with Tween-80) 86 % of control.

With `Cc1nc(N)[nH]c(=O)c1CCCNS(=O)(=O)c1ccc(C(=O)O)cc1`, the T/C is 88 % of control under setting [6] and 112 % of control under setting [7].

Regarding `CC/C(C)=N/Nc1ccc([N+](=O)[O-])cc1[N+](=O)[O-]`, the T/C is, setting by setting: (dose: 100.0 mg/kg/injection, schedule: Q01DX001 (ip), vehicle: other) 94 % of control; (dose: 200.0 mg/kg/injection, schedule: Q01DX001 (ip), vehicle: other) 94 % of control; (dose: 400.0 mg/kg/injection, schedule: Q01DX001 (ip), vehicle: other) 97 % of control.

As to `CCc1nc(NS(=O)(=O)c2ccc(N)cc2)nc(-c2ccccc2)c1-c1ccccc1O`, the T/C runs as follows: (dose: 100.0 mg/kg/injection, schedule: Q04DX002 (ip), vehicle: Klucel (hydroxypropylcellulose) (HPC)) 87 % of control; under setting [6], 91 % of control; under setting [7], 95 % of control.

On to `CC(C)(C)c1ccc(Sc2cnccc2C(C)(C)C)cc1`, for which the T/C (dose: 87.5 mg/kg/injection, schedule: Q04DX003 (ip), vehicle: saline with Tween-80) was 97 % of control; the T/C (dose: 175.0 mg/kg/injection, schedule: Q04DX003 (ip), vehicle: saline with Tween-80) was 102 % of control; the T/C (dose: 350.0 mg/kg/injection, schedule: Q04DX003 (ip), vehicle: saline with Tween-80) was 94 % of control.

With `Cc1c(C(=O)O)c(C)c([N+](=O)[O-])c(C)c1[N+](=O)[O-]`, the T/C runs as follows: under setting [3], 95 % of control; (dose: 100.0 mg/kg/injection, schedule: Q04DX003 (ip), vehicle: Klucel (hydroxypropylcellulose) (HPC)) 90 % of control; under setting [4], 97 % of control; (dose: 200.0 mg/kg/injection, schedule: Q04DX003 (ip), vehicle: Klucel (hydroxypropylcellulose) (HPC)) 95 % of control; under setting [5], 97 % of control; (dose: 400.0 mg/kg/injection, schedule: Q04DX003 (ip), vehicle: Klucel (hydroxypropylcellulose) (HPC)) 93 % of control.

For `COc1ccc(C2(O)C3CCC(C3)C2(C)C)cc1` (stereo unspecified), the T/C reads like this: (dose: 50.0 mg/kg/injection, schedule: Q01DX001 (ip), vehicle: carboxymethylcellulose (CMC)) 89 % of control; under setting [8], 89 % of control; under setting [9], 89 % of control; under setting [10], 95 % of control.

With `CC1NCc2c(N)nc(N)nc21` (stereo unspecified), the T/C by setting is: under setting [8], 98 % of control; under setting [9], 95 % of control; under setting [10], 98 % of control.

Consider `OC1CC2c3ccccc3C1c1cccc[n+]12` (stereo unspecified), for which the T/C is 98 % of control (dose: 12.5 mg/kg/injection, schedule: Q01DX009 (ip), vehicle: Klucel (hydroxypropylcellulose) (HPC)); 94 % of control and 97 % of control (dose: 12.5 mg/kg/injection, schedule: Q04DX003 (ip), vehicle: Klucel (hydroxypropylcellulose) (HPC)); 100 % of control (dose: 12.5 mg/kg/injection, schedule: Q04DX003 (ip), vehicle: saline); 96 % of control (dose: 25.0 mg/kg/injection, schedule: Q01DX009 (ip), vehicle: Klucel (hydroxypropylcellulose) (HPC)); 103 % of control and 95 % of control (dose: 25.0 mg/kg/injection, schedule: Q04DX003 (ip), vehicle: Klucel (hydroxypropylcellulose) (HPC)); 103 % of control (dose: 25.0 mg/kg/injection, schedule: Q04DX003 (ip), vehicle: saline). Moreover, the T/C is, setting by setting: (dose: 50.0 mg/kg/injection, schedule: Q01DX009 (ip), vehicle: Klucel (hydroxypropylcellulose) (HPC)) 94 % of control; (dose: 50.0 mg/kg/injection, schedule: Q04DX003 (ip), vehicle: Klucel (hydroxypropylcellulose) (HPC)) 94 % of control and 95 % of control; (dose: 50.0 mg/kg/injection, schedule: Q04DX003 (ip), vehicle: saline) 97 % of control; (dose: 100.0 mg/kg/injection, schedule: Q04DX003 (ip), vehicle: saline) 102 % of control.

With `CC(=O)N(N=O)c1ccc(Cl)cc1[N+](=O)[O-]`, the T/C reads like this: (dose: 50.0 mg/kg/injection, schedule: Q01DX009 (ip), vehicle: saline) 101 % of control; (dose: 100.0 mg/kg/injection, schedule: Q01DX009 (ip), vehicle: saline) 104 % of control.

Turning to `c1ccc(N(c2ccccc2)C(c2ccccc2)(c2ccccc2)c2ccccc2)cc1`, the T/C (dose: 25.6 mg/kg/injection, schedule: Q04DX002 (ip), vehicle: saline with Tween-80) is 93 % of control; the T/C (dose: 64.0 mg/kg/injection, schedule: Q04DX002 (ip), vehicle: saline with Tween-80) is 104 % of control; the T/C under setting [4] was 89 % of control; the T/C (dose: 160.0 mg/kg/injection, schedule: Q04DX002 (ip), vehicle: saline with Tween-80) is 95 % of control; the T/C under setting [5] is 92 % of control; the T/C (dose: 400.0 mg/kg/injection, schedule: Q04DX002 (ip), vehicle: saline with Tween-80) was 95 % of control. Moreover, under setting [11], the T/C was 685 % of control.

With `C1=CC2CC1CC2[P+](c1ccccc1)(c1ccccc1)c1ccccc1` (stereo unspecified), the T/C was 117 % of control (dose: 12.5 mg/kg/injection, schedule: Q01DX001 (ip), vehicle: saline); 98 % of control (dose: 25.0 mg/kg/injection, schedule: Q01DX001 (ip), vehicle: saline); 95 % of control (dose: 50.0 mg/kg/injection, schedule: Q01DX001 (ip), vehicle: saline).

With `C/C(=N\O)C(C)C`, the T/C is 93 % of control under setting [1]; 100 % of control (dose: 100.0 mg/kg/injection, schedule: Q01DX009 (ip), vehicle: saline with Tween-80); 101 % of control under setting [2]; 98 % of control (dose: 200.0 mg/kg/injection, schedule: Q01DX009 (ip), vehicle: saline with Tween-80); 98 % of control (dose: 400.0 mg/kg/injection, schedule: Q01DX001 (ip), vehicle: saline with Tween-80); 92 % of control (dose: 400.0 mg/kg/injection, schedule: Q01DX009 (ip), vehicle: saline with Tween-80).

In the case of `c1ccc2c(c1)Cc1c(-c3ccncc3)n[nH]c1-2`, the T/C runs as follows: under setting [4], 93 % of control; under setting [5], 96 % of control; under setting [11], 86 % of control.

Take `CCCCCCCCCN1C(=O)c2ccccc2S1(=O)=O`: the T/C is 100 % of control (dose: 222.0 mg/kg/injection, schedule: Q01DX Z (ip), vehicle: saline); 97 % of control (dose: 333.0 mg/kg/injection, schedule: Q01DX Z (ip), vehicle: saline); 91 % of control (dose: 500.0 mg/kg/injection, schedule: Q01DX Z (ip), vehicle: saline).

`NNC(=O)Nc1cccnc1`: the T/C (dose: 75.0 mg/kg/injection, schedule: Q01DX009 (ip), vehicle: saline) was 106 % of control.
